# In PMC10620772, “Design, synthesis, and biological evaluation of new pyrimidine-5-carbonitrile derivatives as novel anti-cancer, dual EGFR^WT/COX-2 inhibitors with docking studies” (RSC Advances, 2023):
# “And” between values parts separate entries of the source, which are not always exact repeats. Equal entries are not always repeated. “Also recorded” adds a separate entry of the source.
# Assays:
# K-562 = test: NCI60 antitumor screening; assay type: cell-based, human
# SR = test: NCI60 antitumor screening; assay type: cell-based, human
# EKVX = test: NCI60 antitumor screening; assay type: cell-based, human
# HOP-62 = test: NCI60 antitumor screening; assay type: cell-based, human
# NCI-H322M = test: NCI60 antitumor screening; assay type: cell-based, human
# NCI-H460 = test: NCI60 antitumor screening; assay type: cell-based, human
# COLO 205 = test: NCI60 antitumor screening; assay type: cell-based, human
# HCT-116 = test: NCI60 antitumor screening; assay type: cell-based, human
# SW-620 = test: NCI60 antitumor screening; assay type: cell-based, human
# SF-539 = test: NCI60 antitumor screening; assay type: cell-based, human
# U251 = test: NCI60 antitumor screening; assay type: cell-based, human
# LOX IMVI = test: NCI60 antitumor screening; assay type: cell-based, human
# MALME-3M = test: NCI60 antitumor screening; assay type: cell-based, human
# MDA-MB-435 = test: NCI60 antitumor screening; assay type: cell-based, human
# SK-MEL-28 = test: NCI60 antitumor screening; assay type: cell-based, human; details: Homo sapiens; 10 μM single dose; SK-MEL-28 (melanoma); read-out: growth inhibition percent (GI%)
# OVCAR-4 = test: NCI60 antitumor screening; assay type: cell-based, human
# NCI/ADR-RES = test: NCI60 antitumor screening; assay type: cell-based, human
# A498 = test: NCI60 antitumor screening; assay type: cell-based, human
# MDA-MB-231/ATCC = test: NCI60 antitumor screening; assay type: cell-based, human; details: Homo sapiens; 10 μM single dose; MDA-MB-231/ATCC (breast cancer); read-out: growth inhibition percent (GI%)
# HS 578T = test: NCI60 antitumor screening; assay type: cell-based, human
# T-47D = test: NCI60 antitumor screening; assay type: cell-based, human
# NCI60 cell lines panel = test: NCI60 antitumor screening, full panel; assay type: cell-based, human
# Outline: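 Percent growth inhibition (GI%) was recorded for each of the NCI60 lines, spanning leukaemia, lung, colon, CNS, melanoma, ovarian, renal, prostate and breast cancers, after exposure to compounds at one concentration, 10 μM.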
# CNS cancer subpanel = test: NCI60 five-dose, subpanel IV; assay type: cell-based, human
# Text: (§1) (2) The molar concentration of the compound responsible for total growth inhibition, also known as total growth inhibition (TGI).
# (§2) Regarding subpanel selectivity toward certain cancer type, the method of determining a compound's selectivity index is to divide the full panel MG-MID (μM) value by each single subpanel. Values above six indicate high selectivity against the subpanel; moderate selectivity is denoted by values between three and six. Conversely, compounds are termed nonselective if their selectivity is less than three.[30,37]
# melanoma subpanel = test: NCI60 five-dose, subpanel V; assay type: cell-based, human
# Text: as §1, §2
# EGFR^WT = molecular target: T1, EGFR^WT (Homo sapiens, UniProt P00533); test: In vitro EGFR^WT inhibitory assay (BPS Bioscience kinase kit); assay type: biochemical; details: means ± SD of three experiments
# T1 construct: purchased BPS Bioscience 40 321
# T1 sequence (P00533 25-1210): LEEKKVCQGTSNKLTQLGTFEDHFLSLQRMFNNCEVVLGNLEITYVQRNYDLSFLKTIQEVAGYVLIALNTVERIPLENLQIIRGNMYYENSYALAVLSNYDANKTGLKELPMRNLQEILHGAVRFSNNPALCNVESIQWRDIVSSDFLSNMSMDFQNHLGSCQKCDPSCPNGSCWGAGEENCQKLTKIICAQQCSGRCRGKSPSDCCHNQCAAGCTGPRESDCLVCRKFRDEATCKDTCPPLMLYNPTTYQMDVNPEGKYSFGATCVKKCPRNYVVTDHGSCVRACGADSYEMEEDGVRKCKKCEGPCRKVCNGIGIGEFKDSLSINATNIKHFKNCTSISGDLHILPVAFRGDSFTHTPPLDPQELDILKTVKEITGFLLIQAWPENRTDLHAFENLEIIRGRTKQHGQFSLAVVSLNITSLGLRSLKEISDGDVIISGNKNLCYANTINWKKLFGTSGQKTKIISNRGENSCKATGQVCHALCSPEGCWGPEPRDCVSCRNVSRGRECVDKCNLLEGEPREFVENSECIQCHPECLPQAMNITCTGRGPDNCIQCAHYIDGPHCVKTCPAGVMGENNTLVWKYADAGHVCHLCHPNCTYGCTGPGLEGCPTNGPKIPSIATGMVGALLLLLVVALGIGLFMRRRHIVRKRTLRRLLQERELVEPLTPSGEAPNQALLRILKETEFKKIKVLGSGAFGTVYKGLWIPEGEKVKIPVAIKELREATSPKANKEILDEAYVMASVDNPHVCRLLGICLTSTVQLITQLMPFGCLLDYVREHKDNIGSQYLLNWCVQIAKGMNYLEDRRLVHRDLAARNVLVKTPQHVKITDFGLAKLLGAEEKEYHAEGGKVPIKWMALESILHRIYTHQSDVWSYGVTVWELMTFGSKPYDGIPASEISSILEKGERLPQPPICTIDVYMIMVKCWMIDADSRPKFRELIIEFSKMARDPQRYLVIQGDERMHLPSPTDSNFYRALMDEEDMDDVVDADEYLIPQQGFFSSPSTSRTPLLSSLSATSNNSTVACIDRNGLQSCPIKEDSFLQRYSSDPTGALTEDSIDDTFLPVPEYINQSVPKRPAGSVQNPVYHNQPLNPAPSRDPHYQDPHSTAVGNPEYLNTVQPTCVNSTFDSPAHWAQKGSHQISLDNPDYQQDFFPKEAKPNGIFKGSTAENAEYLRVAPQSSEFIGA
# Procedure: (1) Prepare the mixture of N wells × (kinase assay buffer 6 μl, ATP1 μl, PTK substrate 1 μl and water 17 μl). to every well pipette the 25 μl. […] On the contrary, add 5 μl of inhibitor buffer to control and plank wells. (3) Pipette 20 μl of EGFR^WT to test and control wells, on the blank wells pipette 20 μl kinase assay buffer. Then incubate at R.T for 40 min. (4) end the incubation after 40 min by adding to every well 50 μl of Kinase-Glo Max reagent, and incubate 15 min. By measuring the ATP quantity after kinase reaction, the activity of kinase could be detected. (5) use microplate reader to measure the luminescence.[51]
# COX-1 = molecular target: T2, COX-1 (Ovis aries, UniProt P05979); test: COX-1 inhibitor screening kit (Biovision); assay type: biochemical; details: means ± SD of three experiments; read-out: COX1 IC50
# T2 construct: purchased Biovision K548
# T2 sequence (P05979 25-600): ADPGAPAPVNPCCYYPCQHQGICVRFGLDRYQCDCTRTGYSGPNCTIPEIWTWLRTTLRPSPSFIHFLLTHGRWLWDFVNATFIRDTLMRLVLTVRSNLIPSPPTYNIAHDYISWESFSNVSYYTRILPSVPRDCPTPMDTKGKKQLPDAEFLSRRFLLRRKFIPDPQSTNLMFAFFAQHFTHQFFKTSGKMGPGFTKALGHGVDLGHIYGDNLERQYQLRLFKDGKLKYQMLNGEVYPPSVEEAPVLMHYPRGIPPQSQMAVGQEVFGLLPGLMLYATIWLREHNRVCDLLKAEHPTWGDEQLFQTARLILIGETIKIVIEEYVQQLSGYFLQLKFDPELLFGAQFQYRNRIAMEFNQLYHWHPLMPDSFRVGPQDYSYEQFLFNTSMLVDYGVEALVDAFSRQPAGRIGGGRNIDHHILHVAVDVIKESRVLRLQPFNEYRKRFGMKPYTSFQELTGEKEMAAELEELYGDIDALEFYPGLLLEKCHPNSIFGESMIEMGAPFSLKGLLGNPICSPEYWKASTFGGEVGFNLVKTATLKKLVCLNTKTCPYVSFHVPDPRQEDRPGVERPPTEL
# Procedure: The inhibitory activity of novel 4e & 4f against COX-1/COX-2 was evaluated by using Biovision COX-1/COX-2 Inhibitor Screening Kit (Catalog #: K548) and (Catalog #: K547), respectively.
# [1] = Homo sapiens, NCI-H322M, five-dose
# [2] = Homo sapiens, SF-539, five-dose
# [3] = Homo sapiens, OVCAR-4, five-dose
# [4] = full panel MG-MID / subpanel IV
smiles,measurement,setting,value
"N#Cc1c(-c2ccc(F)cc2)nc(SCc2ccc(F)cc2)nc1N1CCNCC1 [4f, 2-((4-Fluorobenzyl)thio)-4-(4-fluorophenyl)-6-(piperazin-1-yl) pyrimidine-5-carbonitrile]",GI%,K-562; 10 μM one-dose,99.28%
same,GI50,"K-562; Homo sapiens, K562, five-dose",3.76 µM
same,CC50,"K-562; Homo sapiens, K562, five-dose, read-out: LC50 (the source's name)",> 100 µM
same,inhibition at 10 µM,"K-562; Homo sapiens, 10 μM single dose, (leukaemia), read-out: growth inhibition percent (GI%)",99.3%
same,TGI,K-562; five-dose,17.80 µM
same,GI50,"SR; Homo sapiens, SR, five-dose",2.18 µM
same,CC50,"SR; Homo sapiens, SR, five-dose, read-out: LC50 (the source's name)",17.5 µM
same,inhibition at 10 µM,"SR; Homo sapiens, 10 μM single dose, SR (leukaemia), read-out: growth inhibition percent (GI%)",> 100%
same,TGI,SR; five-dose,5.07 µM
same,GI%,EKVX; 10 μM one-dose,98.71%
same,GI50,"EKVX; Homo sapiens, EKVX, five-dose",13.1 µM
same,LC50,"EKVX; Homo sapiens, EKVX, five-dose",52.9 µM
same,inhibition at 10 µM,"EKVX; Homo sapiens, 10 μM single dose, EKVX (non-small cell lung cancer), read-out: growth inhibition percent (GI%)",98.7%
same,TGI,EKVX; five-dose,26.40 µM
same,GI50,"HOP-62; Homo sapiens, HOP-62, five-dose",17 µM
same,CC50,"HOP-62; Homo sapiens, HOP-62, five-dose, read-out: LC50 (the source's name)",65.8 µM
same,inhibition at 10 µM,"HOP-62; Homo sapiens, 10 μM single dose, HOP-62 (non-small cell lung cancer), read-out: growth inhibition percent (GI%)",> 100%
same,TGI,HOP-62; five-dose,33.40 µM
same,GI50,NCI-H322M; [1],14 µM
same,LC50 (50% lethal concentration),NCI-H322M; [1],52.8 µM
same,inhibition at 10 µM,"NCI-H322M; Homo sapiens, 10 μM single dose, NCI-H322M (non-small cell lung cancer), read-out: growth inhibition percent (GI%)",64%
same,TGI,NCI-H322M; five-dose,27.20 µM
same,GI50,"NCI-H460; Homo sapiens, NCI-H460, five-dose",14.3 µM
same,CC50,"NCI-H460; Homo sapiens, NCI-H460, five-dose, read-out: LC50 (the source's name)",60.4 µM
same,inhibition at 10 µM,"NCI-H460; Homo sapiens, 10 μM single dose, NCI-H460 (non-small cell lung cancer), read-out: growth inhibition percent (GI%)",> 100%
same,TGI,NCI-H460; five-dose,29.40 µM
same,IC50,"COLO 205; Homo sapiens, COLO 205",1.83 µM
same,GI50,"COLO 205; Homo sapiens, COLO 205, five-dose",1.83 µM
same,CC50,"COLO 205; Homo sapiens, COLO 205, five-dose, read-out: LC50 (the source's name)",6.34 µM
same,inhibition at 10 µM,"COLO 205; Homo sapiens, 10 μM single dose, COLO 205 (colon cancer), read-out: growth inhibition percent (GI%)",> 100%
same,TGI,COLO 205; five-dose,3.40 µM
same,GI50,"HCT-116; Homo sapiens, HCT-116, five-dose",4.15 µM
same,CC50,"HCT-116; Homo sapiens, HCT-116, five-dose, read-out: LC50 (the source's name)",42.8 µM
same,inhibition at 10 µM,"HCT-116; Homo sapiens, 10 μM single dose, HCT-116 (colon cancer), read-out: growth inhibition percent (GI%)",> 100%
same,TGI,HCT-116; five-dose,15.60 µM
same,GI50,"SW-620; Homo sapiens, SW-620, five-dose",5.97 µM
same,CC50,"SW-620; Homo sapiens, SW-620, five-dose, read-out: LC50 (the source's name)",48.7 µM
same,inhibition at 10 µM,"SW-620; Homo sapiens, 10 μM single dose, SW-620 (colon cancer), read-out: growth inhibition percent (GI%)",> 100%
same,TGI,SW-620; five-dose,19.30 µM
same,GI50,SF-539; [2],15.6 µM
same,LC50,SF-539; [2],54.1 µM
same,inhibition at 10 µM,"SF-539; Homo sapiens, 10 μM single dose, SF-539 (CNS cancer), read-out: growth inhibition percent (GI%)",> 100%
same,TGI,SF-539; five-dose,29.00 µM
same,inhibition at 10 µM,"U251; Homo sapiens, U-251, 10 μM single dose, U251 (CNS cancer), read-out: growth inhibition percent (GI%)",> 100%
same,GI50,"U251; Homo sapiens, U-251, five-dose",10.3 µM
same,CC50,"U251; Homo sapiens, U-251, five-dose, read-out: LC50 (the source's name)",59.1 µM
same,TGI,U251; five-dose,24.70 µM
same,GI50,"LOX IMVI; Homo sapiens, LOX IMVI, five-dose",2.28 µM
same,CC50,"LOX IMVI; Homo sapiens, LOX IMVI, five-dose, read-out: LC50 (the source's name)",22.7 µM
same,inhibition at 10 µM,"LOX IMVI; Homo sapiens, 10 μM single dose, LOX IMVI (melanoma), read-out: growth inhibition percent (GI%)",> 100%
same,TGI,LOX IMVI; five-dose,5.69 µM
same,GI50,"MALME-3M; Homo sapiens, Malme-3M, five-dose",14.7 µM
same,CC50,"MALME-3M; Homo sapiens, Malme-3M, five-dose, read-out: LC50 (the source's name)",54.8 µM
same,inhibition at 10 µM,"MALME-3M; Homo sapiens, 10 μM single dose, MALME-3M (melanoma), read-out: growth inhibition percent (GI%)",> 100%
same,TGI,MALME-3M; five-dose,28.40 µM
same,GI50,"MDA-MB-435; Homo sapiens, MDA-MB-435, five-dose",16.8 µM
same,CC50,"MDA-MB-435; Homo sapiens, MDA-MB-435, five-dose, read-out: LC50 (the source's name)",58.4 µM
same,inhibition at 10 µM,"MDA-MB-435; Homo sapiens, 10 μM single dose, MDA-MB-435 (melanoma), read-out: growth inhibition percent (GI%)",> 100%
same,TGI,MDA-MB-435; five-dose,31.30 µM
same,inhibition at 10 µM,SK-MEL-28,> 100%
same,GI50,OVCAR-4; [3],16.5 µM
same,"LC50 (lethal concentration, 50% cell kill)",OVCAR-4; [3],68.7 µM
same,inhibition at 10 µM,"OVCAR-4; Homo sapiens, 10 μM single dose, OVCAR-4 (ovarian cancer), read-out: growth inhibition percent (GI%)",> 100%
same,TGI,OVCAR-4; five-dose,33.60 µM
same,GI50,"NCI/ADR-RES; Homo sapiens, NCI/ADR-RES, five-dose",13.7 µM
same,CC50,"NCI/ADR-RES; Homo sapiens, NCI/ADR-RES, five-dose, read-out: LC50 (the source's name)",67.5 µM
same,inhibition at 10 µM,"NCI/ADR-RES; Homo sapiens, 10 μM single dose, NCI/ADR-RES (ovarian cancer), read-out: growth inhibition percent (GI%)",> 100%
same,TGI,NCI/ADR-RES; five-dose,30.40 µM
same,GI50,"A498; Homo sapiens, A498, five-dose",15.3 µM
same,LC50,"A498; Homo sapiens, A498, five-dose",58.2 µM
same,inhibition at 10 µM,"A498; Homo sapiens, 10 μM single dose, A498 (renal cancer), read-out: growth inhibition percent (GI%)",< 10%
same,TGI,A498; five-dose,29.80 µM
same,inhibition at 10 µM,MDA-MB-231/ATCC,> 100%
same,GI50,"HS 578T; Homo sapiens, Hs-578T, five-dose",15.6 µM
same,CC50,"HS 578T; Homo sapiens, Hs-578T, five-dose, read-out: LC50 (the source's name)",77 µM
same,inhibition at 10 µM,"HS 578T; Homo sapiens, 10 μM single dose, HS 578T (breast cancer), read-out: growth inhibition percent (GI%)",> 100%
same,TGI,HS 578T; five-dose,34.60 µM
same,inhibition at 10 µM,"T-47D; Homo sapiens, T47D, 10 μM single dose, T-47D (breast cancer), read-out: growth inhibition percent (GI%)",> 100%
same,GI50,"T-47D; Homo sapiens, T47D, five-dose",13.8 µM
same,CC50,"T-47D; Homo sapiens, T47D, five-dose, read-out: LC50 (the source's name)",67.2 µM
same,TGI,T-47D; five-dose,30.40 µM
same,One-dose activity over the NCI60 panel,NCI60 cell lines panel; 10 μM,lethal to most of cell lines; also recorded: Lethal to almost all NCI60 cell lines
same,inhibition at 10 µM,"NCI60 cell lines panel; Homo sapiens, 10 μM single dose, mean over NCI60 cell lines, read-out: Mean growth inhibition percent (GI%)",> 100%
same,GI50,"NCI60 cell lines panel; Homo sapiens, average of all cell lines, read-out: Full panel MG-MID (GI50)",13.5 µM
same,Full panel MG-MID (TGI),NCI60 cell lines panel; average of all cell lines,26.45 μM and 26.45 ^e μM
same,GI50,"CNS cancer subpanel; Homo sapiens, subpanel IV, read-out: MG-MID (GI50)",14.3 µM
same,Selectivity index (GI50),CNS cancer subpanel; [4],0.94
same,Selectivity index (TGI),CNS cancer subpanel; [4],0.91
same,MG-MID (TGI),CNS cancer subpanel; subpanel IV,28.98 µM
same,GI50,"melanoma subpanel; Homo sapiens, subpanel V, read-out: MG-MID (GI50)",13.9 µM
same,Selectivity index (GI50),melanoma subpanel; full panel MG-MID / subpanel V,0.96
same,Selectivity index (TGI),melanoma subpanel; full panel MG-MID / subpanel V,1.00
same,MG-MID (TGI),melanoma subpanel; subpanel V,26.43 µM
same,IC50,EGFR^WT,0.23 µM and 0.235 µM
same,IC50,COX-1,31.6 ± 0.89 µM
